Holding throughout (type): binding
Experiment [1] concerns the target T1, PrnB (Pseudomonas fluorescens, UniProt P95481, C175S/C21S/C60S). In words: spectrophotometric ligand titration.
For experiment [2], the target named is T1, PrnB. In words: spectrophotometric ligand titration. The source holds these as a separate data set.
In experiment [3] the target is T1, PrnB. Put plainly: spectrophotometric ligand titration. The source holds these as a separate data set.
Experiment [4] has as its target PrnB (Pseudomonas fluorescens, UniProt P95481, C21S/C60S/C175S). In words: crystal structure.

Read-outs that look alike come from different tables or passages of the source.

T1 sequence (P95481 whole entry C175S/C21S/C60S): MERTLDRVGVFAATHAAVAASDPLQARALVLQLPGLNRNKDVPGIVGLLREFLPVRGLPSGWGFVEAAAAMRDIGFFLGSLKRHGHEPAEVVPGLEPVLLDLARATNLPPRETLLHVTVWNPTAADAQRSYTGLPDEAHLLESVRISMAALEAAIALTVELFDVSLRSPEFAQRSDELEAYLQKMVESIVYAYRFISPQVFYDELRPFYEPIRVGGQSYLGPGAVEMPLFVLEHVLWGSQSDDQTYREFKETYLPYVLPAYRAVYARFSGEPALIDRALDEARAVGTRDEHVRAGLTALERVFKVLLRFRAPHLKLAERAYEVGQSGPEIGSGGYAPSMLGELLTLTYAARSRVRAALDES
Sequence of PrnB (Pseudomonas fluorescens, UniProt P95481, C21S/C60S/C175S) (P95481 whole entry C21S/C60S/C175S): as the sequence (P95481 whole entry C175S/C21S/C60S) above

In general, Kd refers to a measure of binding affinity in units of concentration. A low value points to higher affinity. Consider `N[C@@H](Cc1c[nH]c2c(Cl)cccc12)C(=O)O` [7-Cl-L-tryptophan], for which, in experiment [1], the affinity, expressed as Kd, was 4.9 µM.
In turn, `N[C@H](Cc1c[nH]c2ccccc12)C(=O)O` [D-tryptophan] returned a Kd in experiment [2] of 39 µM. This lies in the double-digit micromolar range.
Take `N[C@@H](Cc1c[nH]c2ccccc12)C(=O)O` [L-tryptophan]: the Kd in experiment [3] was determined as 60 µM.
With `NC(Cc1c[nH]c2c(Cl)cccc12)C(=O)O` (racemic) [7-Cl-D-tryptophan], the “crystal structure (2.0 Å)” value in experiment [4] is reported as “In the 7-Cl-D-tryptophan complex, one of the oxygen atoms of the carboxyl group is bound to the iron”.

(Values after publication PMC3326534 (Biochemistry, 2007).)
